Converted amounts (≈) assume the structure as drawn.
Tests used:
[1] = system: RAW 264.7 cells; settings: RAW 264.7 cell line, MTT assay, 50 μg mL^−1, 48 h incubation
[2] = system: Mycobacterium tuberculosis H37Rv; experiment: In vitro MTB Microplate Alamar Blue Assay; type: cell-based
[3] = Mycobacterium tuberculosis, H37RV, M. tuberculosis H37Rv, MABA, average of duplicates
[4] = against MTB, in vitro (conclusion)
[5] = Mycobacterium tuberculosis, H37RV, 168 h, M. tuberculosis H37Rv, MABA, average of duplicates
[6] = M. tuberculosis H37Rv, MABA, average of duplicates

| SMILES | Cytotoxicity in % inhibition at 50 μg mL^−1 [1] [%] | MIC [2, 3] [µM] | other results |
| --- | --- | --- | --- |
| Cc1ccc2c(c1)C=CC1(CCc3c(nnn3-c3ccccc3)C1)O2 (centres unmarked) [Compound 7a, 6′-Methyl-1-phenyl-1,4,6,7-tetrahydrospiro[benzo[d][1,2,3]triazole-5,2′-chromene]] | 30.23 | 4.74 (≈ 1.56 µg/mL) | MIC [2, 4]: 1.56 µg |
| Cc1ccc(-n2nnc3c2CCC2(C=Cc4cc(C)ccc4O2)C3)cc1 (centres unmarked) [Compound 7b, 6′-Methyl-1-(p-tolyl)-1,4,6,7-tetrahydrospiro[benzo[d][1,2,3]triazole-5,2′-chromene]] | – | – | MIC [2, 5]: 75.8 µM (≈ 26 µg/mL) |
| Cc1ccc2c(c1)C=CC1(CCc3c(nnn3-c3ccc(Cl)cc3)C1)O2 (centres unmarked) [Compound 7c, 1-(4-Chlorophenyl)-6′-methyl-1,4,6,7-tetrahydrospiro[benzo[d][1,2,3]triazole-5,2′-chromene]] | – | 34.4 (≈ 12.5 µg/mL) | – |
| COc1ccc(-n2nnc3c2CCC2(C=Cc4cc(C)ccc4O2)C3)cc1 (centres unmarked) [Compound 7d, 1-(4-Methoxyphenyl)-6′-methyl-1,4,6,7-tetrahydrospiro[benzo[d][1,2,3]triazole-5,2′-chromene]] | 33.14 | 4.34 (≈ 1.56 µg/mL) | MIC [2, 4]: 1.56 µg |
| Cc1ccc2c(c1)C=CC1(CCc3c(nnn3Cc3ccccc3)C1)O2 (centres unmarked) [Compound 7e, 1-Benzyl-6′-methyl-1,4,6,7-tetrahydrospiro[benzo[d][1,2,3]triazole-5,2′-chromene]] | – | – | MIC [2, 5]: 75.8 µM (≈ 26 µg/mL) |
| Clc1ccc2c(c1)C=CC1(CCc3c(nnn3-c3ccccc3)C1)O2 (centres unmarked) [Compound 7f, 6′-Chloro-1-phenyl-1,4,6,7-tetrahydrospiro[benzo[d][1,2,3]triazole-5,2′-chromene]] | 21.41 | 17.9 (≈ 6.26 µg/mL) | – |
| Cc1ccc(-n2nnc3c2CCC2(C=Cc4cc(Cl)ccc4O2)C3)cc1 (centres unmarked) [Compound 7g, 6′-Chloro-1-(p-tolyl)-1,4,6,7-tetrahydrospiro[benzo[d][1,2,3]triazole-5,2′-chromene]] | – | 68.9 (≈ 25.1 µg/mL) | – |
| Clc1ccc(-n2nnc3c2CCC2(C=Cc4cc(Cl)ccc4O2)C3)cc1 (centres unmarked) [Compound 7h, 6′-Chloro-1-(4-chlorophenyl)-1,4,6,7-tetrahydrospiro[benzo[d][1,2,3]triazole-5,2′-chromene]] | – | 65.3 (≈ 25.1 µg/mL) | – |
| COc1ccc(-n2nnc3c2CCC2(C=Cc4cc(Cl)ccc4O2)C3)cc1 (centres unmarked) [Compound 7i, 6′-Chloro-1-(4-methoxyphenyl)-1,4,6,7-tetrahydrospiro[benzo[d][1,2,3]triazole-5,2′-chromene]] | 29.36 | 4.11 (≈ 1.56 µg/mL) | MIC [2, 4]: 1.56 µg |
| Clc1ccc2c(c1)C=CC1(CCc3c(nnn3Cc3ccccc3)C1)O2 (centres unmarked) [Compound 7j, 1-Benzyl-6′-chloro-1,4,6,7-tetrahydrospiro[benzo[d][1,2,3]triazole-5,2′-chromene]] | – | 34.4 (≈ 12.5 µg/mL) | – |
| Cc1cc2c(cc1Cl)C=CC1(CCc3c(nnn3-c3ccccc3)C1)O2 (centres unmarked) [Compound 7k, 6′-Chloro-7′-methyl-1-phenyl-1,4,6,7-tetrahydrospiro[benzo[d][1,2,3]triazole-5,2′-chromene]] | 24.90 | 8.6 (≈ 3.13 µg/mL) | MIC [2, 6]: 8.60 µM (≈ 3.13 µg/mL) |
| Cc1ccc(-n2nnc3c2CCC2(C=Cc4cc(Cl)c(C)cc4O2)C3)cc1 (centres unmarked) [Compound 7l, 6′-Chloro-7′-methyl-1-(p-tolyl)-1,4,6,7-tetrahydrospiro[benzo[d][1,2,3]triazole-5,2′-chromene]] | – | – | MIC [2, 5]: 69 µM (≈ 26.1 µg/mL) |
| Cc1cc2c(cc1Cl)C=CC1(CCc3c(nnn3-c3ccc(Cl)cc3)C1)O2 (centres unmarked) [Compound 7m, 6′-Chloro-1-(4-chlorophenyl)-7′-methyl-1,4,6,7-tetrahydrospiro[benzo[d][1,2,3]triazole-5,2′-chromene]] | 24.76 | 7.67 (≈ 3.05 µg/mL) | MIC [2, 6]: 7.87 µM (≈ 3.13 µg/mL) |
| COc1ccc(-n2nnc3c2CCC2(C=Cc4cc(Cl)c(C)cc4O2)C3)cc1 (centres unmarked) [Compound 7n, 6′-Chloro-1-(4-methoxyphenyl)-7′-methyl-1,4,6,7-tetrahydrospiro[benzo[d][1,2,3]triazole-5,2′-chromene]] | 22.64 | 15.9 (≈ 6.26 µg/mL) | – |
| Cc1cc2c(cc1Cl)C=CC1(CCc3c(nnn3Cc3ccccc3)C1)O2 (centres unmarked) [Compound 7o, 1-Benzyl-6′-chloro-7′-methyl-1,4,6,7-tetrahydrospiro[benzo[d][1,2,3]triazole-5,2′-chromene]] | – | 66.3 (≈ 25.1 µg/mL) | – |
| CC[C@@H](CO)NCCN[C@@H](CC)CO [Ethambutol, reference compound] | – | 7.64 (≈ 1.56 µg/mL) | – |
| NNC(=O)c1ccncc1 [Isoniazid, reference compound] | – | 0.437 (≈ 0.0599 µg/mL) | – |
| CO[C@H]1/C=C/O[C@@]2(C)Oc3c(C)c(O)c4c(O)c(c(/C=N/N5CCN(C)CC5)c(O)c4c3C2=O)NC(=O)/C(C)=C\C=C\[C@H](C)[C@H](O)[C@@H](C)[C@@H](O)[C@@H](C)[C@H](OC(C)=O)[C@@H]1C [Rifampicin, reference compound] | – | 0.5 (≈ 0.411 µg/mL) | MIC [2, 6]: 0.50 µM (≈ 0.411 µg/mL) |
| NC(=O)c1cnccn1 [pyrazinamide, reference compound] | – | 50.8 (≈ 6.25 µg/mL) | – |
